Read-outs that look alike come from different tables or passages of the source. Peptide text beside a SMILES is read from it.

The subject of assay [1] is NCI-H292 lung cancer cells. The assay is described as follows: FDA drug screening, complete media vs cholesterol-free media without statin (TABLE 1). Format: cell-based, human.
Assay [2] has as its system NCI-H292 lung cancer cells. The assay is described as follows: FDA drug screening, complete media vs cholesterol-free media with simvastatin (TABLE 2). The format is cell-based, human.
[3] abbreviates: NCI-H292 cells, cholesterol-free media without statin, FDA drug library screen.
Setting [4] is: NCI-H292 cells, complete media, FDA drug library screen.
Where [5] appears, read: complete vs cholesterol-free media, >0 enhanced anti-cancer activity, about 0 neutral, <0 antagonist.
Where [6] appears, read: NCI-H292 cells, FDA drug library screen, cholesterol-free media with simvastatin 0.04 μM.
Setting [7] is: NCI-H292 cells, FDA drug library screen, complete media.
Where [8] appears, read: complete media minus cholesterol-free media + simvastatin, >0 enhanced anti-cancer activity, about 0 neutral, <0 antagonist.
The mark [9] stands for this setting: Complete minus Cholesterol-free, >0 enhanced anti-cancer activity, about 0 neutral, <0 antagonist.
Where [10] appears, read: complete media vs cholesterol-free media + simvastatin (0.04 μM), >0 enhanced anti-cancer activity, about 0 neutral, <0 antagonist.
Setting [11] is: NCI-H292 cells, cholesterol-free media without statin.
Setting [12] is: NCI-H292 cells, drug in cholesterol-free media with simvastatin 0.04 μM.
[13] abbreviates: NCI-H292 cells, drug in complete media.

Consider `CCCCOc1ccc(CC(=O)NO)cc1` [Bufexamac], for which the Cholesterol-free in assay [1] (setting [3]) is reported as 1.346. The same compound registered a Complete in assay [1] (setting [4]) of 1.459. Moreover, the Difference amounted to 0.11 in assay [1] (setting [5]) and 0.56 in assay [2] (setting [8]). Besides, in assay [2] (setting [6]), the “Cholesterol-free media + simvastatin (0.04 μM)” value stood at 1.029. The “Complete Media” value in assay [2] (setting [7]) turned out to be 1.594.

`C[C@@H]1NC(=O)[C@@H]2CCCN2C(=O)[C@H](CC(N)=O)NC(=O)[C@@H]2CSSC[C@H](N)C(=O)N[C@H]3CSSC[C@H](NC1=O)C(=O)N[C@@H]([C@@H](C)O)C(=O)NCC(=O)N[C@H](C(=O)N[C@@H](Cc1ccc(O)cc1)C(=O)O)CSSC[C@H](NC(=O)[C@H](Cc1ccc(O)cc1)NC(=O)[C@H](CCC(=O)O)NC3=O)C(=O)N2` [Linaclotide] (HELM PEPTIDE1{C.C.E.Y.C.C.N.P.A.C.T.G.C.Y}$PEPTIDE1,PEPTIDE1,1:R3-6:R3|PEPTIDE1,PEPTIDE1,2:R3-10:R3|PEPTIDE1,PEPTIDE1,5:R3-13:R3$$$V2.0) registered a Cholesterol-free in assay [1] (setting [3]) of 1.326. Further, the Complete in assay [1] (setting [4]) was 1.765. Moreover, the Difference in assay [1] (complete vs cholesterol-free media, […]) is given as 0.44; in assay [2] (complete media vs cholesterol-free media + simvastatin (0.04 μM), […]), −0.10. Besides, the “Cholesterol-free media + simvastatin (0.04 μM)” value in assay [2] (setting [6]) is 0.9562. Moreover, in assay [2] (setting [7]), the “Complete Media” value turned out to be 0.8554.

As for `COc1cc(C(=O)NS(=O)(=O)c2ccccc2C)ccc1Cc1cn(C)c2ccc(NC(=O)OC3CCCC3)cc12` [Zafirlukast], the Difference is on record as 0.05 in assay [1] (setting [9]) and −0.09 in assay [2] (setting [10]). The compound further registered a Cholesterol-free in assay [1] (setting [3]) of 0.8473. This compound also showed a Complete in assay [1] (setting [4]) of 0.9001. In addition, the “Cholesterol-free media + simvastatin (0.04 μM)” value in assay [2] (setting [6]) worked out at 1.598. Besides, the “Complete Media” value in assay [2] (setting [7]) amounted to 1.505.

Take `CC(c1cc2ccccc2s1)N(O)C(N)=O` (stereo not shown) [Zileuton]: the values for the Difference in assay [1] (setting [9]) and in assay [2] (setting [10]) were −0.21 and −0.24, respectively. Also, the Cholesterol-free in assay [1] (setting [11]) is 1.451. This compound registered a Complete in assay [1] (NCI-H292 cells, complete media) of 1.238. Further, the “Cholesterol-free media + simvastatin (0.04 μM)” value in assay [2] (setting [12]) amounted to 1.302. Besides, in assay [2] (setting [13]), the “Complete Media” value is 1.066.

For the compound `c1ccc2[nH]c(-c3cscn3)nc2c1` [Thiabendazole], the Cholesterol-free in assay [1] (setting [3]) is given as 0.802. The same compound gave a Complete in assay [1] (setting [4]) of 1.484. The Difference was found to be 0.68 in assay [1] (setting [5]) and 0.23 in assay [2] (setting [8]). For the same compound, in assay [2] (setting [6]), the “Cholesterol-free media + simvastatin (0.04 μM)” value came to 0.9537. For the same compound, in assay [2] (setting [7]), the “Complete Media” value turned out to be 1.187.

Regarding Amlodipine (besylate), in assay [1], the Cholesterol-free turned out to be 1.359 and the Difference was −0.33. For the same compound, in assay [2], the “Cholesterol-free media + simvastatin (0.04 μM)” value is given as 1.186 and the Difference is listed as −0.19.

Compound `CC1=CC(=O)c2ccccc2C1=O` [Menadione] came in with a Cholesterol-free in assay [1] (setting [3]) of 0.7683. In assay [1] (setting [4]), this compound registered a Complete of 1.342. Moreover, the Difference in assay [1] (setting [5]) is on record as 0.57; in assay [2] (complete media minus cholesterol-free media + simvastatin (0.04 μM), >0 enhanced anti-cancer activity, about 0 neutral, <0 antagonist) it was −0.05. The “Cholesterol-free media + simvastatin (0.04 μM)” value in assay [2] (NCI-H292 cells, cholesterol-free media with simvastatin 0.04 μM, FDA drug library screen (TABLE 2)) was 1.102. Besides, the “Complete Media” value in assay [2] (NCI-H292 cells, complete media, FDA drug library screen (TABLE 2)) came out at 1.055.

The compound `NC(CO)(CO)CO.O=C(c1ccccc1)c1ccc2n1CCC2C(=O)O` (stereo not shown) [Ketorolac (tromethamine salt)] came in with a Cholesterol-free in assay [1] (setting [11]) of 1.112. For the same compound, in assay [1] (NCI-H292 cells, complete media), the Complete was found to be 0.6871. Besides, the Difference in assay [1] (complete vs cholesterol-free media, greater than 0 enhanced anti-cancer activity, about 0 neutral, below 0 antagonists) is −0.42; in assay [2] (setting [10]), −0.17. In assay [2] (setting [12]), the “Cholesterol-free media + simvastatin (0.04 μM)” value amounted to 1.289. The “Complete Media” value in assay [2] (setting [13]) is given as 1.116.

In assay [1], `O.O.O=C([O-])CC(O)(CC(=O)[O-])C(=O)[O-].[Na+].[Na+].[Na+]` [Sodium citrate (dihydrate)] displayed a Cholesterol-free of 0.7144, a Complete of 0.9967 and a Difference of 0.28. Further, in assay [2], the “Cholesterol-free media + simvastatin (0.04 μM)” value came out at 1.04, the “Complete Media” value was 1.108 and the Difference is on record as 0.07.

As to `COc1cc2c(c(OC)c1OC)-c1ccc(OC)c(=O)cc1[C@@H](NC(C)=O)CC2` [Colchicine], in assay [1], the Cholesterol-free worked out at 0.1135, the Complete stood at 0.07073 and the Difference was −0.04. Also, in assay [2], the “Cholesterol-free media + simvastatin (0.04 μM)” value was 0.1971, the “Complete Media” value was 0.2205 and the Difference was determined as 0.02.
